Results as given in ChEMBL document CHEMBL5653631, “A Potent and Selective ULK1 Inhibitor Suppresses Autophagy and Sensitizes Cancer Cells to Nutrient Stress” (iScience, 2018).

Assays:
[1] = target: Serine/threonine-protein kinase SIK2 (Homo sapiens) (UniProt Q9H0K1); assay: Inhibition of human recombinant QIK at 500 nM related to control ULK1
[2] = target: Dual specificity tyrosine-phosphorylation-regulated kinase 1A (Homo sapiens) (UniProt Q13627); assay: Inhibition of human recombinant DYRK1A at 500 nM related to control ULK1
[3] = target: RAF proto-oncogene serine/threonine-protein kinase (Homo sapiens) (UniProt P04049); assay: Inhibition of human recombinant RAF1 at 500 nM related to control ULK1
Chain of RAF proto-oncogene serine/threonine-protein kinase (Homo sapiens) (P04049 whole entry): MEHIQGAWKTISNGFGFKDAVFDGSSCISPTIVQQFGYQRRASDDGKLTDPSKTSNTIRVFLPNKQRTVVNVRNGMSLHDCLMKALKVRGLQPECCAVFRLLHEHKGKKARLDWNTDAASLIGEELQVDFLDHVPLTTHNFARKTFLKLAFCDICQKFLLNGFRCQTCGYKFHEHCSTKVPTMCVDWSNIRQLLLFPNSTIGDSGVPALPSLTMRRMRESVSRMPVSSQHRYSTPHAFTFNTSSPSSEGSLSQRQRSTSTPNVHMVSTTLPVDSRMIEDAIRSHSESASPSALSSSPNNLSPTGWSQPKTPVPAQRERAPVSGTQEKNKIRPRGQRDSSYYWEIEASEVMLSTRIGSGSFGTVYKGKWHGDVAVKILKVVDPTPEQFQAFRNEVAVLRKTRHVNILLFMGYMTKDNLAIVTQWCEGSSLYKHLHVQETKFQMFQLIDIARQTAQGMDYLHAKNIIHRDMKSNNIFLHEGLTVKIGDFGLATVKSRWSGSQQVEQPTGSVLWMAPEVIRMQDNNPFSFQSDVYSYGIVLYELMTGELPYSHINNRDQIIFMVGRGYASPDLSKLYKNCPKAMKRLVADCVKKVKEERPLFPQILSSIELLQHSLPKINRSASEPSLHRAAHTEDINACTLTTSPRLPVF

[4] = target: T1, Serine/threonine-protein kinase STK11 (Homo sapiens) (UniProt Q15831); assay: Inhibition of human recombinant LKB1 at 500 nM in presence of ATP by radiometric assay relative to control
T1 sequence (whole entry): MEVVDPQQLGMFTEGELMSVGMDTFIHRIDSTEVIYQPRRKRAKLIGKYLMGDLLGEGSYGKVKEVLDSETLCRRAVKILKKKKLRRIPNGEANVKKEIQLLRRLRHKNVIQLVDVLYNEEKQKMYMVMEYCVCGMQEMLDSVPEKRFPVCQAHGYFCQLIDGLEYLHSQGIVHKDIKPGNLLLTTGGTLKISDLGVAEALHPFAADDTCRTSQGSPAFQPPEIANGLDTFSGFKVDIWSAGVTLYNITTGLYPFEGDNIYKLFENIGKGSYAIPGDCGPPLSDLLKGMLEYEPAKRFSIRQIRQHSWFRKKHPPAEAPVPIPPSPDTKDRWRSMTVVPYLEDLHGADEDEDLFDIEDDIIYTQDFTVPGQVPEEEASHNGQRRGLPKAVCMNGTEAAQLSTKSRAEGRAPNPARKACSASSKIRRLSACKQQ

[5] = target: T2, Tyrosine-protein kinase Mer (Homo sapiens) (UniProt Q12866); assay: Inhibition of human recombinant MER at 15 nM related to control ULK1
T2 sequence (whole entry): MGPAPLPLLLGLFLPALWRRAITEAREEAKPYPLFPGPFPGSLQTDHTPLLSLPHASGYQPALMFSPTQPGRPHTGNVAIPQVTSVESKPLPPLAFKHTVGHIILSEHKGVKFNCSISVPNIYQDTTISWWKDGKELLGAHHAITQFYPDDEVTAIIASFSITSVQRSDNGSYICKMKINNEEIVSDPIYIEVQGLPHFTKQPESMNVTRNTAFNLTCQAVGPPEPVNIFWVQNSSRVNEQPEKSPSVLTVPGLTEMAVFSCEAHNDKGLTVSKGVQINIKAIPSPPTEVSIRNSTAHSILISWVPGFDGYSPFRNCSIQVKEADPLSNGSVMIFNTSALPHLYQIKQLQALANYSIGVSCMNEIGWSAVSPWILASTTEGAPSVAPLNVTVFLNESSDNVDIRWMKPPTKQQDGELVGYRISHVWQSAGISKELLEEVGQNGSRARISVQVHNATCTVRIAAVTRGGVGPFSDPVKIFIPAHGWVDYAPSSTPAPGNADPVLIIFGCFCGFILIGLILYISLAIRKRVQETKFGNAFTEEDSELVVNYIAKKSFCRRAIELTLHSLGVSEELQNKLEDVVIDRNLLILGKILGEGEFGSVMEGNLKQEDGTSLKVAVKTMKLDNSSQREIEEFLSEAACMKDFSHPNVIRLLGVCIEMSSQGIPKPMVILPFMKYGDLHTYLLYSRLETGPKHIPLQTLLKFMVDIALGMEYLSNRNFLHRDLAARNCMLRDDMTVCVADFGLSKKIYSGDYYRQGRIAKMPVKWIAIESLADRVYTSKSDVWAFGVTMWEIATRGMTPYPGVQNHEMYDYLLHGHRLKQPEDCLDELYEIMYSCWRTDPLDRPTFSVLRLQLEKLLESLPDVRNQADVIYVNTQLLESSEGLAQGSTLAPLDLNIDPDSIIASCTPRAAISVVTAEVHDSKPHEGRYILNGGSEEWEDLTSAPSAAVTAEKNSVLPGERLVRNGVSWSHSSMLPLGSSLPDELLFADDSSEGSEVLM

[6] = target: T3, Serine/threonine-protein kinase 3 (Homo sapiens) (UniProt Q13188); assay: Inhibition of human recombinant MST2 at 40 nM related to control ULK1
T3 sequence (whole entry): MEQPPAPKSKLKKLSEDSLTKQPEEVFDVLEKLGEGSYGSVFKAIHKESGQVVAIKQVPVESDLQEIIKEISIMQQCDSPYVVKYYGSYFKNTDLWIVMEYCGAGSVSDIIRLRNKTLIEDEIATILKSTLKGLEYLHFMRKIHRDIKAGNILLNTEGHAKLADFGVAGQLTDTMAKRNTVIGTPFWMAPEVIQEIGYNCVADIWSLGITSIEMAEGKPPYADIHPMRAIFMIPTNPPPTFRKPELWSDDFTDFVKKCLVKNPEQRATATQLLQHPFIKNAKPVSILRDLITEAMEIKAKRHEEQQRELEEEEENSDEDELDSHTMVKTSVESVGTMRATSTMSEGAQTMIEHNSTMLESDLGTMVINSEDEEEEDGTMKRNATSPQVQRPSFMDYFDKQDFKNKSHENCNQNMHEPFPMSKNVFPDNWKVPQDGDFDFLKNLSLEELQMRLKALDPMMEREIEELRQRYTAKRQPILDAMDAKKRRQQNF

[7] = target: Mitogen-activated protein kinase kinase kinase 9 (Homo sapiens) (UniProt P80192); assay: Inhibition of human recombinant MLK1 at 40 nM in presence of ATP by radiometric assay relative to control
Chain of Mitogen-activated protein kinase kinase kinase 9 (Homo sapiens) (P80192 whole entry, looked up): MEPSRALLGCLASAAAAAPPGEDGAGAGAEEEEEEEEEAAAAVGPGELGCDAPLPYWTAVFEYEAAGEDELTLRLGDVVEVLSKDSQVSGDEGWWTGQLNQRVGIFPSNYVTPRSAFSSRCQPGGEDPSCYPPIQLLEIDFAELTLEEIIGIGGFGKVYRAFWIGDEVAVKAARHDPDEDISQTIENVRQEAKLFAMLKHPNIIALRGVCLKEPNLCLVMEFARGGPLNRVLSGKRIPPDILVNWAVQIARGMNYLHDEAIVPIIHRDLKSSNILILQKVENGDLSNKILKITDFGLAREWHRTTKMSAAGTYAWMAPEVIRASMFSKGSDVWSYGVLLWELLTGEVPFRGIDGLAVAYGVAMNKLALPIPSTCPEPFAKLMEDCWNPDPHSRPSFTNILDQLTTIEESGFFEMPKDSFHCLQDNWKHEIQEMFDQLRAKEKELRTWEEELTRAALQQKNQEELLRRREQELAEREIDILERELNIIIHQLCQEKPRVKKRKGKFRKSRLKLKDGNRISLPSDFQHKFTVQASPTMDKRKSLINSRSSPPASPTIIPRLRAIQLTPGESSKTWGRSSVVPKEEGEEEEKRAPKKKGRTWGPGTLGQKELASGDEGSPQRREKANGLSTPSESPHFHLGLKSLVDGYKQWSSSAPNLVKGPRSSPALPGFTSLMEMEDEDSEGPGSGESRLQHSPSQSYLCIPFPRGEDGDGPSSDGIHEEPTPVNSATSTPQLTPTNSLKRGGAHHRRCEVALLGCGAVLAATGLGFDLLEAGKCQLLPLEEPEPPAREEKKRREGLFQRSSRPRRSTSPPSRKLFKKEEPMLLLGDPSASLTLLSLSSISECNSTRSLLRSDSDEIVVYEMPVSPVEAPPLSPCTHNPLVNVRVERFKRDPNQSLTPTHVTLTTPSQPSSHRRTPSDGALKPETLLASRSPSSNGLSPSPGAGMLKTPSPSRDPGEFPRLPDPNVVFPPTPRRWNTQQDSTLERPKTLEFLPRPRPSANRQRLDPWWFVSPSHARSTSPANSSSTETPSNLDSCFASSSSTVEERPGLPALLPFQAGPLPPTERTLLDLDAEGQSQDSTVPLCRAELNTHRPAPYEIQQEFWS

[8] = target: T4, Serine/threonine-protein kinase Nek11 (Homo sapiens) (UniProt Q8NG66); assay: Inhibition of human recombinant NEK11 at 40 nM related to control ULK1
T4 sequence (whole entry): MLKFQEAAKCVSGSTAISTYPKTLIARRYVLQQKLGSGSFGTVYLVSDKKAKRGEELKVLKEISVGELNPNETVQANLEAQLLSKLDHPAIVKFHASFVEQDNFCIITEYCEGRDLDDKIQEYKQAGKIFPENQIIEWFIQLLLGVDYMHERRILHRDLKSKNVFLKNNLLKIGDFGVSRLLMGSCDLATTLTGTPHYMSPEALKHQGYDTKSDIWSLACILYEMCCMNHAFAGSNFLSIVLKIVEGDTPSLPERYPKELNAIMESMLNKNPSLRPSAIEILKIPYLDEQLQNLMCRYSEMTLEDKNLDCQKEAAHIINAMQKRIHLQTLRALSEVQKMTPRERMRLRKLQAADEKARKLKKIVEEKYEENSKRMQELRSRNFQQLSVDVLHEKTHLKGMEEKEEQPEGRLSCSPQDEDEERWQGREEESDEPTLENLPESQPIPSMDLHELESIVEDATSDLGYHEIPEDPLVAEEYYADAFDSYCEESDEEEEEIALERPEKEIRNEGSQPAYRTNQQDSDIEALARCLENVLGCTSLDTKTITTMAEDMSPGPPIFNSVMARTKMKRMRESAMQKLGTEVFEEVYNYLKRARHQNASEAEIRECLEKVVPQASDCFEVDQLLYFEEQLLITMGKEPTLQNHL

Chain of Serine/threonine-protein kinase SIK2 (Homo sapiens) (Q9H0K1 whole entry, looked up): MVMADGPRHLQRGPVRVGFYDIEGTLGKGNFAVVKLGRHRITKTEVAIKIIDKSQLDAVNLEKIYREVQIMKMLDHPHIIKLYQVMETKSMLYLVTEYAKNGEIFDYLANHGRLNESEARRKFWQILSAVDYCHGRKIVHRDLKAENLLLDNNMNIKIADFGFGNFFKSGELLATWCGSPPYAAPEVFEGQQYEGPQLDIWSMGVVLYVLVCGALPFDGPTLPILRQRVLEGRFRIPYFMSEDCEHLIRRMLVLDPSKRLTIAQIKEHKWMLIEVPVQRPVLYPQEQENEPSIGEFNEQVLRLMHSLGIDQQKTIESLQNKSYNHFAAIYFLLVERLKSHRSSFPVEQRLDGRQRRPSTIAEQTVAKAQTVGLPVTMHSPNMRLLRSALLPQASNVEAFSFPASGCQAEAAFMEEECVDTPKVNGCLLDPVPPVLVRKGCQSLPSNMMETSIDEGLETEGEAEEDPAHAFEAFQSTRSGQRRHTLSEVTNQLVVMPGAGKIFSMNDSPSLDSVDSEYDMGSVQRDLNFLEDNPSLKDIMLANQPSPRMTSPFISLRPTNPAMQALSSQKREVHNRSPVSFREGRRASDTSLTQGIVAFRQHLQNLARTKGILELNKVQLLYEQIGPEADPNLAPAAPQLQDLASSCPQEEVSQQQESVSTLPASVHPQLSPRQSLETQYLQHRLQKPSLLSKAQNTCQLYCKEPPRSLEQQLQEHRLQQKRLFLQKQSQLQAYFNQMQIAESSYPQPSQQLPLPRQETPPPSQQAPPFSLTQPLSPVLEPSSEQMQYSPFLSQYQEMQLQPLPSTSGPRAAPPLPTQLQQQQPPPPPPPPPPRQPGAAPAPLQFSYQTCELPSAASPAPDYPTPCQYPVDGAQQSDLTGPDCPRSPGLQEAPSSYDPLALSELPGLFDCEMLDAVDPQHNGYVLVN

With `CNC(=O)c1ccccc1Oc1nc(Nc2cc(OC)c(OC)c(OC)c2)ncc1Br` the fold change (FC) [1] was 0, the fold change (FC) [2] was 0.01 and the fold change (FC) [3] was 0.15. For the same molecule, the inhibition [4] was 12%.

For `CC(C)[C@H](NC(=O)c1cc(-c2cnn3cc(-c4ccc(OCCN5CCCCC5)cc4)cnc23)cs1)C(F)(F)F`, the fold change (FC) [5] was 0.39.

In the case of `O=C(N[C@@H](C1CC1)C(F)(F)F)c1cc(-c2cnn3cc(-c4ccc(F)cc4)cnc23)cs1`, the fold change (FC) [6] is reported as 0, the inhibition [7] is reported as 7% and the fold change (FC) [8] is reported as 0.11.
